Test results taken from PMC8779152, “A “Double-Locked” and Enzyme/pH-Activated Theranostic Agent for Accurate Tumor Imaging and Therapy” (Molecules, 2022).

Target: HDAC1 (Homo sapiens, UniProt Q13547)
Experiment: HDAC1 enzyme inhibition (assay details not given)
Assay type: biochemical

Chain of HDAC1 (Q13547 whole entry): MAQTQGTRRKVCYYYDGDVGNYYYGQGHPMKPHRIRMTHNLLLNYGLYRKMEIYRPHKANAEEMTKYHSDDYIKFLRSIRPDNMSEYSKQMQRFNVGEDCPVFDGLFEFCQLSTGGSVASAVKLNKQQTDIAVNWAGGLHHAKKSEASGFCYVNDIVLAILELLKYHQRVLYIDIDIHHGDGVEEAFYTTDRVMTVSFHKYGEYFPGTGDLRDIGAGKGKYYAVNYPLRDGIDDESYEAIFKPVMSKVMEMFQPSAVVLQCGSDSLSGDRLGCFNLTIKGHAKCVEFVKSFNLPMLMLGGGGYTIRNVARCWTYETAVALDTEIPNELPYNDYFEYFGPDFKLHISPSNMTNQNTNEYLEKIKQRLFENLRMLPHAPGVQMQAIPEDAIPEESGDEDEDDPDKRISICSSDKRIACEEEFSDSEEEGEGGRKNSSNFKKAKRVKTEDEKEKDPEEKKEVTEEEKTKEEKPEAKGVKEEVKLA

| IC50 [nM] | Structure (SMILES) |
| --- | --- |
| 41 ± 5 | Nc1ccc(-c2nc(NCc3ccc(C(=O)NO)cc3)cc3c2[nH]c2ccccc23)cc1 [H6AQ] |
| 65 ± 6 | O=C(NO)c1ccc(CNc2cc3c([nH]c4ccccc43)c(-c3ccc([N+](=O)[O-])cc3)n2)cc1 [H6M] |
